Structures can show the parent of a compound that is named as a salt.
How the values were obtained:
Type in all cases: biochemical
[1] = target: T1, human JAK1 (a.a. 837-1142) (Homo sapiens, UniProt P23458); assay: In vitro JAK kinase assay (HTRF, phosphorylation of a biotinylated peptide), JAK1; settings: Table B1; read-out: JAK1 IC50
T1 construct: human JAK1 (a.a. 837-1142); His tag (N); made in house; host or cells: insect cells (baculovirus)
Procedure, shortened: (§1)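 Kinase activity was measured as phosphorylation of a biotinylated peptide, with ATP at 90 μM for JAK1, 30 μM for JAK2 and 3 μM for JAK3. Reactions ran 1 hr at room temperature, were stopped with EDTA plus SA-APC and Eu-Py20, and were read by HTRF after 40 minutes of antibody binding.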

[2] = target: T2, human JAK2 (a.a. 828-1132) (Homo sapiens, UniProt O60674); assay: In vitro JAK kinase assay (HTRF, phosphorylation of a biotinylated peptide), JAK2; settings: Table B1
T2 construct: JAK2 (a.a. 828-1132); His tag (N); made in house; host or cells: insect cells (baculovirus)
T2 sequence (O60674 828-1132): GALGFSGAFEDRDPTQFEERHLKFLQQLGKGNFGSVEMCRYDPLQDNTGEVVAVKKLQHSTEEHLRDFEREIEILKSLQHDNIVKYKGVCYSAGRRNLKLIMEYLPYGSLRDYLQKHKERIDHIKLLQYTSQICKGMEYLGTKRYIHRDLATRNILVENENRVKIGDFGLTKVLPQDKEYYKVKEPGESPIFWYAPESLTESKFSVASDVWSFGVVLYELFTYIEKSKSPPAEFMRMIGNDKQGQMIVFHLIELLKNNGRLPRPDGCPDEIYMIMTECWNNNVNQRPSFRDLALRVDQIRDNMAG
Procedure, shortened: as §1

[3] = target: T3, human JAK3 (a.a. 781-1124) (Homo sapiens, UniProt P52333); assay: In vitro JAK kinase assay (HTRF, phosphorylation of a biotinylated peptide), JAK3; settings: Table B1
T3 construct: JAK3 (a.a. 781-1124); His tag (N); made in house; host or cells: insect cells (baculovirus)
T3 sequence (P52333 781-1124): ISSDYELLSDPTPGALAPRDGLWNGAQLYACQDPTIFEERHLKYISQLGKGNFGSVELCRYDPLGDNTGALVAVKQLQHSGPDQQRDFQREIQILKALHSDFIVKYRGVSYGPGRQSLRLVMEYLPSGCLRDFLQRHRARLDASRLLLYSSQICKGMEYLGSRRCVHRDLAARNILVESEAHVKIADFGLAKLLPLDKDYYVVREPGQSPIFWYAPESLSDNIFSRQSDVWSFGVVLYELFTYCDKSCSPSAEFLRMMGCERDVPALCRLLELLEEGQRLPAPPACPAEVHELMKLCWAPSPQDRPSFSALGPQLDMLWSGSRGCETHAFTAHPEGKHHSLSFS
Procedure, shortened: as §1

[4] = target: TYK2 (Homo sapiens, UniProt P29597); assay: TYK2 kinase inhibition (Table A1); settings: Table B1
TYK2, sequence (P29597 whole entry): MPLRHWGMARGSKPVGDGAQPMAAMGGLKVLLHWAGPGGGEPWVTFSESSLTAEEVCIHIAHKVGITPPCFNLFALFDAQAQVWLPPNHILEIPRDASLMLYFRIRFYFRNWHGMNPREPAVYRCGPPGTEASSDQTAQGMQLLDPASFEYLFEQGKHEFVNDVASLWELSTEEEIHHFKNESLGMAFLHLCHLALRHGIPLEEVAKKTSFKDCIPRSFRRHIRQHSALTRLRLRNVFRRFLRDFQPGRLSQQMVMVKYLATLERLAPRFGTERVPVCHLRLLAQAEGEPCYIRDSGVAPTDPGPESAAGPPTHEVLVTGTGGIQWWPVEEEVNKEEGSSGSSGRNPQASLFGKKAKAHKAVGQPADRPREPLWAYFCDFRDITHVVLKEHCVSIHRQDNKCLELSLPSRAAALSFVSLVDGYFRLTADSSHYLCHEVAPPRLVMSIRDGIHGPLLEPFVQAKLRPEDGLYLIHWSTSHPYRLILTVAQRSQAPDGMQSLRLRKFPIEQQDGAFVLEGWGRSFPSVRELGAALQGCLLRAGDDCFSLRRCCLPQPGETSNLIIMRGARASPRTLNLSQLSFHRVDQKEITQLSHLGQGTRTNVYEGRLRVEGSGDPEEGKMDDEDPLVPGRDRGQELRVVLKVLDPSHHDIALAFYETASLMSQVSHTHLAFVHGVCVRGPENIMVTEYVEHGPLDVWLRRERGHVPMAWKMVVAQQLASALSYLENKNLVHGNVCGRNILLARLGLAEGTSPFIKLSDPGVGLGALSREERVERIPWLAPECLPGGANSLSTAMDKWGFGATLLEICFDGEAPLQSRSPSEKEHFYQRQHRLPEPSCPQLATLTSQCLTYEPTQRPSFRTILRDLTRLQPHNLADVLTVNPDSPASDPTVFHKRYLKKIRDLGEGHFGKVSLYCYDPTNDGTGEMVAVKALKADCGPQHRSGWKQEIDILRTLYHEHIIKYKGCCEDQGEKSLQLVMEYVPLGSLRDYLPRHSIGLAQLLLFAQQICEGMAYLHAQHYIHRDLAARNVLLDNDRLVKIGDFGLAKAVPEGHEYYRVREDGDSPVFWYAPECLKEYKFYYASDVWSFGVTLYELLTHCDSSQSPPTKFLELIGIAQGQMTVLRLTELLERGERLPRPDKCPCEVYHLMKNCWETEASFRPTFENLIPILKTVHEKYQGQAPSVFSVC

[5] = target: T4, Recombinant Human Anaplastic Lymphoma Kinase (Homo sapiens, UniProt Q9UM73); assay: ALK HTRF kinase assay; settings: for ALK % of inhibition at a concentration of 500 nM or 1 mM: compound at a concentration of 500 nM or 1 mM (not specified), cells shown as percentage; for IC50: Table B1, cells without percent sign
T4 construct: purchased Invitrogen, Carlsbad, Calif
T4 sequence (Q9UM73 19-1620): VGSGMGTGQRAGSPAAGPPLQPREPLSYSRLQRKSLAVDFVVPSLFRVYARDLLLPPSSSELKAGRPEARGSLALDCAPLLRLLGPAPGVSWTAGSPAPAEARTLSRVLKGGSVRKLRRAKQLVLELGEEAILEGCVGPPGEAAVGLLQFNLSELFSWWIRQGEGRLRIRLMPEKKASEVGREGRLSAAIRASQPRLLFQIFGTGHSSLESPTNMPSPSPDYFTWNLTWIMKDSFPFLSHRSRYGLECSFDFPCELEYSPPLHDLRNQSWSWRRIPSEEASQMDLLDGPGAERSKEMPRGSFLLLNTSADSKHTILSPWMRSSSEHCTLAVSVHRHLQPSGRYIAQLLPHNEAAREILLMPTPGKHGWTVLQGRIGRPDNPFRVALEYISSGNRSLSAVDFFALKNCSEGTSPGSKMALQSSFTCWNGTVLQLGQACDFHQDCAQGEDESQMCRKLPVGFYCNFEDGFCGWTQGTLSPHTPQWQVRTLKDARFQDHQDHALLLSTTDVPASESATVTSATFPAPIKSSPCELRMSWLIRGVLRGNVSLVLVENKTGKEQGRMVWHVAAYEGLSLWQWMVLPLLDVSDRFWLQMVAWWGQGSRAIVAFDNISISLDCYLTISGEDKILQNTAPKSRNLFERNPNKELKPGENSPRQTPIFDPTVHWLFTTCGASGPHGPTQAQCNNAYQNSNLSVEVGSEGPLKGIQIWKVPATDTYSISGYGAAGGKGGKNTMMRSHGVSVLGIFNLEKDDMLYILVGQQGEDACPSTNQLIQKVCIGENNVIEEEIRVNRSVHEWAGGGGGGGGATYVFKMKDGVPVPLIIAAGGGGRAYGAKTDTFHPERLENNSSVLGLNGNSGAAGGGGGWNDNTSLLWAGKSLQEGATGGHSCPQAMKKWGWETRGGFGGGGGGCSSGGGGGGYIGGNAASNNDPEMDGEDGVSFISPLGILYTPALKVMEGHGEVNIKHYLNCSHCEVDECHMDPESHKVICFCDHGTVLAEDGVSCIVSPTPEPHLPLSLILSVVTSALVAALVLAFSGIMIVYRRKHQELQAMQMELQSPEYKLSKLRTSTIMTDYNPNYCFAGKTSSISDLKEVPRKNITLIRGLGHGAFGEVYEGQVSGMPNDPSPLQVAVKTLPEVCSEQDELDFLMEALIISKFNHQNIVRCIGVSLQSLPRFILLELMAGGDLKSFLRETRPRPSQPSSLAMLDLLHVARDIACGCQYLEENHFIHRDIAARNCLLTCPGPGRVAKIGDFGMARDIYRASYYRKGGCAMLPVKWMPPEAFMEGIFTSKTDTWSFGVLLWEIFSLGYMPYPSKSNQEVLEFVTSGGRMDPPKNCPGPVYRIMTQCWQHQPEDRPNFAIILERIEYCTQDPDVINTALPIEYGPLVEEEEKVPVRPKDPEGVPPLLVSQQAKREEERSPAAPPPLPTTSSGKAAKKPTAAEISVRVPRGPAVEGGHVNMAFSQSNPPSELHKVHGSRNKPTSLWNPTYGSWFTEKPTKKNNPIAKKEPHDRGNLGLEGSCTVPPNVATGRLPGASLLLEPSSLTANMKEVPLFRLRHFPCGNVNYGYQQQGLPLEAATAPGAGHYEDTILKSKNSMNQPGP
Procedure, shortened: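 TR-FRET read-out (Eu anti-pTyr antibody + streptavidin-APC) of biotin-peptide phosphorylation by recombinant human enzyme; IC50 by sigmoidal fit with top/bottom baselines and Hill slope.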

T1 sequence (P23458 849-1154): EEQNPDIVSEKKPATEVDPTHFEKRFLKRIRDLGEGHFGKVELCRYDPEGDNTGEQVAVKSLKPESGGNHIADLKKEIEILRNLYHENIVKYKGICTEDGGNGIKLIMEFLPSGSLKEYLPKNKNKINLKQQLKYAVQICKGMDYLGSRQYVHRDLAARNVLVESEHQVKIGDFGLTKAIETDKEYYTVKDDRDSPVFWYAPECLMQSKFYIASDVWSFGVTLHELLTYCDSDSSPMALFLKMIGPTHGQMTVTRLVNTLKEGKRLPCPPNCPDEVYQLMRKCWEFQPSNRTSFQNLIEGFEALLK

Compound	IC50 [1] [nM]	IC50 [2] [nM]	IC50 [3] [nM]	IC50 [4] [nM]	ALK % of inhibition at a concentration of 500 nM or 1 mM [5] [%]	IC50 [5] [nM]
CC1(C)Cc2cccc(NC(=O)Nc3ccc4cc3CCc3cccc(c3)Nc3ncc(Cl)c(n3)N4)c2O1 [Example B129, N-[6-Chloro-2,4,8,22-tetraazatetracyclo[14.3.1.1(3,7).1(9,13)]docosa-1(20),3(22),4,6,9(21),10,12,16,18-nonaen-12-yl]-N′-(2,2-dimethyl-2,3-dihydro-1-benzofuran-7-yl)urea trifluoroacetate]	3.7	9.5	184	32	7.3	–
O=C(Nc1ccc2cc1CCc1cccc(c1)Nc1ncc(Cl)c(n1)N2)Nc1ccccc1-c1ccccc1 [Example B130, N-Biphenyl-2-yl-N′-[6-chloro-2,4,8,22-tetraazatetracyclo[14.3.1.1(3,7).1(9,13)]docosa-1(20),3(22),4,6,9(21),10,12,16,18-nonaen-12-yl]urea trifluoroacetate]	11	11	331	64	0	–
O=C(Nc1ccc2cc1CCc1cccc(c1)Nc1ncc(Cl)c(n1)N2)Nc1ccccc1OC(F)(F)F [Example B131, N-[6-Chloro-2,4,8,22-tetraazatetracyclo[14.3.1.1(3,7).1(9,13)]docosa-1(20), 3(22),4,6,9(21),10,12,16,18-nonaen-12-yl]-N′-[2-(trifluoromethoxy)phenyl]urea trifluoroacetate]	7.3	13	63	33	5.9	–
O=C(Nc1ccc(OC(F)(F)F)cc1)Nc1ccc2cc1CCc1cccc(c1)Nc1ncc(Cl)c(n1)N2 [Example B132, N-[6-Chloro-2,4,8,22-tetraazatetracyclo[14.3.1.1(3,7).1(9,13)]docosa-1(20), 3(22),4,6,9(21),10,12,16,18-nonaen-12-yl]-N′-[4-(trifluoromethoxy)phenyl]urea trifluoroacetate]	11	27	198	96	5	–
O=C(Nc1cccc(N2CCOCC2)n1)Nc1ccc2cc1CCc1cccc(c1)Nc1ncc(Cl)c(n1)N2 [Example B133, N-[6-Chloro-2,4,8,22-tetraazatetracyclo[14.3.1.1(3,7).1(9,13)]docosa-1(20), 3(22),4,6,9(21),10,12,16,18-nonaen-12-yl]-N′-(6-morpholin-4-ylpyridin-2-yl)urea bis(trifluoroacetate)]	44	85	376	288	2.5	–
CNC(=O)Nc1ccc2cc1CCc1cncc(c1)Nc1ncc(Cl)c(n1)N2 [Example B135, N-[6-Chloro-2,4,8,18,22-pentaazatetracyclo[14.3.1.1(3,7).1(9,13)]docosa-1(20),3(22),4,6,9(21),10,12,16,18-nonaen-12-yl]-N′-methylurea bis(trifluoroacetate)]	0.69	4.3	30	6.8	13	–
CCS(=O)(=O)Nc1ccc2cc1CCc1cccc(c1)Nc1ncc(Cl)c(n1)N2 [Example B141, N-[6-Chloro-2,4,8,22-tetraazatetracyclo[14.3.1.1(3,7).1(9,13)]docosa-1(20), 3(22),4,6,9(21),10,12,16,18-nonaen-12-yl]ethanesulfonamide trifluoroacetate]	0.8	0.2	3	1.2	–	740
CCCS(=O)(=O)Nc1ccc2cc1CCc1cccc(c1)Nc1ncc(Cl)c(n1)N2 [Example B142, N-[6-Chloro-2,4,8,22-tetraazatetracyclo[14.3.1.1(3,7).1(9,13)]docosa-1(20), 3(22),4,6,9(21),10,12,16,18-nonaen-12-yl]propane-1-sulfonamide trifluoroacetate]	0.85	0.31	4.6	1.5	–	990
CC(C)S(=O)(=O)Nc1ccc2cc1CCc1cccc(c1)Nc1ncc(Cl)c(n1)N2 [Example B143, N-[6-Chloro-2,4,8,22-tetraazatetracyclo[14.3.1.1(3,7).1(9,13)]docosa-1(20), 3(22),4,6,9(21),10,12,16,18-nonaen-12-yl]propane-2-sulfonamide trifluoroacetate]	11	2.8	104	13	–	> 1000
Cn1cnc(S(=O)(=O)Nc2ccc3cc2CCc2cccc(c2)Nc2ncc(Cl)c(n2)N3)c1 [Example B144, N-[6-Chloro-2,4,8,22-tetraazatetracyclo[14.3.1.1(3,7).1(9,13)]docosa-1(20), 3(22),4,6,9(21),10,12,16,18-nonaen-12-yl]-1-methyl-1H-imidazole-4-sulfonamide bis(trifluoroacetate)]	0.34	0.2	4.2	0.5	–	600
O=S(=O)(Cc1ccccc1)Nc1ccc2cc1CCc1cccc(c1)Nc1ncc(Cl)c(n1)N2 [Example B147, N-[6-Chloro-2,4,8,22-tetraazatetracyclo[14.3.1.1(3,7).1(9,13)]docosa-1(20), 3(22),4,6,9(21),10,12,16,18-nonaen-12-yl]-1-phenylmethanesulfonamide trifluoroacetate]	2.5	1.5	37	6.6	–	1800

More lines, now with the values ahead:

IC50 [1] [nM]	IC50 [2] [nM]	IC50 [3] [nM]	IC50 [4] [nM]	ALK % of inhibition at a concentration of 500 nM or 1 mM [5] [%]	IC50 [5] [nM]	Compound
0.24	0.1	2.3	0.76	–	240	O=S(=O)(Nc1ccc2cc1CCc1cccc(c1)Nc1ncc(Cl)c(n1)N2)c1ccccc1 [Example B136, N-[6-Chloro-2,4,8,22-tetraazatetracyclo[14.3.1.1(3,7).1(9,13)]docosa-1(20), 3(22),4,6,9(21),10,12,16,18-nonaen-12-yl]benzenesulfonamide trifluoroacetate]
0.42	0.11	6.4	0.27	–	580	O=S(=O)(Nc1ccc2cc1CCc1cccc(c1)Nc1ncc(Cl)c(n1)N2)c1ccccc1Cl [Example B137, 2-Chloro-N-[6-chloro-2,4,8,22-tetraazatetracyclo[14.3.1.1(3,7).1(9,13)]docosa-1(20),3(22),4,6,9(21),10,12,16,18-nonaen-12-yl]benzenesulfonamide trifluoroacetate]
0.25	0.1	0.33	0.35	–	100	O=S(=O)(Nc1ccc2cc1CCc1cccc(c1)Nc1ncc(Cl)c(n1)N2)c1cccc(Cl)c1 [Example B138, 3-Chloro-N-[6-chloro-2,4,8,22-tetraazatetracyclo[14.3.1.1(3,7).1(9,13)]docosa-1(20),3(22),4,6,9(21),10,12,16,18-nonaen-12-yl]benzenesulfonamide trifluoroacetate]
0.5	0.1	5.1	0.84	–	290	O=S(=O)(Nc1ccc2cc1CCc1cccc(c1)Nc1ncc(Cl)c(n1)N2)c1ccc(Cl)cc1 [Example B139, 4-Chloro-N-[6-chloro-2,4,8,22-tetraazatetracyclo[14.3.1.1(3,7).1(9,13)]docosa-1(20),3(22),4,6,9(21),10,12,16,18-nonaen-12-yl]benzenesulfonamide trifluoroacetate]
0.51	0.2	1.3	0.89	–	150	CS(=O)(=O)Nc1ccc2cc1CCc1cccc(c1)Nc1ncc(Cl)c(n1)N2 [Example B140, N-[6-Chloro-2,4,8,22-tetraazatetracyclo[14.3.1.1(3,7).1(9,13)]docosa-1(20), 3(22),4,6,9(21),10,12,16,18-nonaen-12-yl]methanesulfonamide trifluoroacetate]
0.5	0.11	2.6	0.61	–	130	O=S(=O)(Nc1ccc2cc1CCc1cccc(c1)Nc1ncc(Cl)c(n1)N2)c1cccs1 [Example B146, N-[6-Chloro-2,4,8,22-tetraazatetracyclo[14.3.1.1(3,7).1(9,13)]docosa-1(20), 3(22),4,6,9(21),10,12,16,18-nonaen-12-yl]thiophene-2-sulfonamide trifluoroacetate]
0.49	0.13	1.1	0.53	–	150	Cc1cccc(S(=O)(=O)Nc2ccc3cc2CCc2cccc(c2)Nc2ncc(Cl)c(n2)N3)c1 [Example B148, N-[6-Chloro-2,4,8,22-tetraazatetracyclo[14.3.1.1(3,7).1(9,13)]docosa-1(20), 3(22),4,6,9(21),10,12,16,18-nonaen-12-yl]-3-methylbenzenesulfonamide trifluoroacetate]
